The record followed here is patent US8481553B2, “Antimetastatic compounds” (Brigham Young University, priority 2010, dated 2013).

What is called inhibition is the change of the read-out against control, counted positive when it falls. A high value points to a response far below the control.

The structures appear in SMILES notation. Some results are limits rather than exact numbers.

For this assay, the system named is MDCK cells. Kind of assay: HGF-induced epithelial-mesenchymal transition / migration of MDCK cells on transwell filters (crystal violet densitometry). The note with it: Canis lupus familiaris, MDCK; test compound 10 μM, then HGF, 24 hours; percentage value like the untreated controls (unstimulated cells = maximal effect, HGF treated cells without compound = nil effect). Type of assay: cell-based. The protocol: MDCK cells were seeded at confluency into the wells of a transwell filter in DMEM with 10% fetal bovine serum. Cells were cultured for 24 hours. Test compounds, dissolved in DMSO, were added to each test well to a 10 μM final concentration, and then hepatocyte growth factor (HGF) was then added. The MDCK cells were cultured for 24 hours. Concurrently, controls treated with and without HGF and with no test compounds were also prepared.
After post-HGF addition culturing, transwell filters were prepared by repeated washing using ice cold PBS. The cells were then fixed with paraformaldehyde (3.7%) on ice for 15 minutes to the filters. After fixation, the transwell filters were washed repeatedly with PBS followed by staining with crystal violet for 15 minutes. The transwell filters were washed again with distilled water.
The upper surface of the transwell filters were swabbed using a cotton-tipped probe. The filters were photographed using a gel documentation system. Densitometry measurements were made on the test samples and compared with control samples.
With `COc1cccc2ccc(/C=C/c3cccc([N+](=O)[O-])c3)nc12` [Compound B-20], the inhibition at 10 µM came out at 92.4%. For `COc1cccc2ccc(/C=C/c3cc(I)ccc3OC(C)=O)nc12` [Compound B-21], testing at 10 µM gave an inhibition of 72.5%. The figure for `COc1cc(Cl)cc(/C=C/c2ccc3cccc(OC)c3n2)c1OC(C)=O` [Compound B-22] is 98.1%; for `COc1cc(Br)cc(/C=C/c2ccc3cccc(OC)c3n2)c1OC` [Compound B-23] it is 72.8%; for `CCC(=O)Oc1c(OC)cc(/C=C/c2ccc3cccc(OC(=O)CC)c3n2)cc1OC` [Compound B-24] it is 98.1%.

Consider `COc1cc(/C=C/c2ccc3cccc(OCc4ccc(Cl)cc4)c3n2)cc(OC)c1OC(C)=O` [Compound B-25], for which the inhibition at 10 µM came out at 78.8%. Consider `CCc1ccc(/C=C/c2ccc3cccc(O)c3n2)cc1` [Compound B-26], for which the inhibition at 10 µM amounted to 81.1%.

With `Oc1c(Br)cc(Cl)cc1/C=C/c1ccc2cccc(O)c2n1` [Compound B-27], the inhibition at 10 µM was 100%. `COc1cc(Cl)cc(/C=C/c2ccc3cccc(O)c3n2)c1OC` [Compound B-28]: testing at 10 µM gave an inhibition of 100%. The figure for `COc1cc(/C=C/c2ccc3cccc(OC(C)=O)c3n2)ccc1O` [Compound B-29] is 94.2%; for `Oc1cccc2ccc(/C=C/c3ccc4c(c3)OCO4)nc12` [Compound B-30] it is 94.4%.

For the compound `CC(C)Oc1ccc(/C=C/c2ccc3cccc(O)c3n2)cc1` [Compound B-31], the inhibition at 10 µM turned out to be 100%. `COc1cc(/C=C/c2ccc3cccc(O)c3n2)ccc1OCc1ccccc1` [Compound B-32] yielded an inhibition at 10 µM of 91.8%.

`COc1ccc(/C=C/c2ccc3cccc(O)c3n2)cc1C` [Compound B-33] yielded an inhibition at 10 µM of 90.7%. As for `COc1cccc(/C=C/c2ccc3cccc(O)c3n2)c1` [Compound B-34], the figure is 51.8%.

Regarding `COc1cc(/C=C/c2ccc3cccc(O)c3n2)cc(OC)c1OC` [Compound B-35], the inhibition at 10 µM is below 5%. As for `COc1cc(/C=C/c2ccc3cccc(O)c3n2)cc(OC)c1O` [Compound B-36], the figure is below 5%.
